In article PMC4893628, “Chalcone-based Selective Inhibitors of a C4 Plant Key Enzyme as Novel Potential Herbicides” (Scientific Reports, 2016):
Like-named read-outs stand apart in the source and are kept apart here.

Key:
[1] = target: T1, F. pringlei PEPC (Flaveria pringlei, UniProt Q01647); test: PEPC coupled spectrophotometric assay, C3 PEPC; assay type: biochemical
T1 construct: the full-length ppcA gene of PEPC from F. trinervia (EMBL-Bank X61304) and F. pringlei (EMBL-Bank Z48966) were cloned in pETEV16b; made in house; host or cells: Escherichia coli BL21-Gold(DE3)
T1 sequence (Q01647 1-967): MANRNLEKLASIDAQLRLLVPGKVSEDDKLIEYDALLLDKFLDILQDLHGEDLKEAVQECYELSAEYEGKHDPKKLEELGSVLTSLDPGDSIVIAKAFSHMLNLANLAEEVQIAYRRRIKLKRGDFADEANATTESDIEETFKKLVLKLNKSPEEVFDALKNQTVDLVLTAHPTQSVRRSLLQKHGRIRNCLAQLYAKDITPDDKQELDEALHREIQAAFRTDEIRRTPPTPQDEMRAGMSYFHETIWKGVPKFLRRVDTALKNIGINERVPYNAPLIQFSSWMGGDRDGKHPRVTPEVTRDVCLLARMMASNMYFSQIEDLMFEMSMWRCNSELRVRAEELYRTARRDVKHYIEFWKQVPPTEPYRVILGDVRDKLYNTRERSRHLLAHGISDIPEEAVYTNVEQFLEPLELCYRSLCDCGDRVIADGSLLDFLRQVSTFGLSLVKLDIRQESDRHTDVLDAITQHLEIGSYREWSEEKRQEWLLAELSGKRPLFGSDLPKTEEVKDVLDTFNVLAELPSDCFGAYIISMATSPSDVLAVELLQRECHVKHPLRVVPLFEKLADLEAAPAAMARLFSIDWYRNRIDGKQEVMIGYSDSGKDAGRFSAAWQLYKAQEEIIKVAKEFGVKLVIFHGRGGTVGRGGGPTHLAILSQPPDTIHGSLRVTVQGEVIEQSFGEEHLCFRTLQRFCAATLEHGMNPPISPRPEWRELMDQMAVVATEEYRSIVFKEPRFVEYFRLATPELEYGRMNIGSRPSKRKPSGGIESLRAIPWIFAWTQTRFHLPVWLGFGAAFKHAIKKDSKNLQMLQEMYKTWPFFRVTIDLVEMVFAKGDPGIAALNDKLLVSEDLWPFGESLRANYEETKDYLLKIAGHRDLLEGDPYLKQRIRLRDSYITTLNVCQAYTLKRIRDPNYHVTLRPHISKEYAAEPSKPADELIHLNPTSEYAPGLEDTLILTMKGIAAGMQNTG
Procedure: The IC50 values of small molecule compounds on F. pringlei and F. trinervia PEPCs were determined using PEPC coupled spectrophotometric assay. The amount of NADH oxidized by NADH-malate dehydrogenase was measured by the decrease in absorbance at 340 nm in a Beckman DU-800 spectrophotometer, thus the value is in proportion to the corresponding substrate conversion of the enzyme. The reaction mixture included the PEPC enzymes (0.05 U), NADH (150 μM), malate dehydrogenase (2 U) and different concentration of compounds in the buffer containing 50 mM HEPES/KOH pH 7.5, 10 mM MgCl2, 10 mM KHCO3 in a final volume of 600 μl at 25 °C. The reactions were started by adding two folds of the Km value of PEP for each enzyme. The data were analyzed using GraFit (Erithacus Software, UK).

[2] = tested on: Corynebacterium glutamicum ATCC13032; test: Bacterial growth in microscale cultivation, C. glutamicum; assay type: cell-based; conditions: for activity at 4 µM / activity at 40 µM / activity at 120 µM / activity at 400 µM / activity at 55 µM / activity at 110 µM / activity at 550 µM: Corynebacterium glutamicum; for activity at 4 µM / activity at 40 µM / activity at 120 µM / activity at 400 µM / Lag Phase / activity at 55 µM / activity at 110 µM / activity at 550 µM: relative to control
Procedure: The following bacteria were cultivated in the presence of trans-chalcone derived inhibitors: Corynebacterium glutamicum ATCC13032[43], Escherichia coli K-12 MG1655[44], Pseudomonas putida KT2440[45], and Bacillus subtilis 168[46]. The growth of these bacteria was monitored in flower-well plates shaken at 1200 rpm as backscatter at 620 nm (gain 20) using a BioLector® microscale cultivation system (m2p labs, Baesweiler, Germany). For further experimental details please refer to the Supplementary Information.
medium or the appropriate minimal medium and shaken at 140 rpm overnight. For inoculation of
the main culture, cells equivalent to an optical density at 600 nm of 0.5 (C. glutamicum, E. coli,
and P. putida) or 0.25 (B. subtilis) in 800 µL medium were washed and resuspended in fresh
media. Inhibitor substances were dissolved in DMSO and added to the media to a final
Since the least polar trans-chalcone and 2’-hydroxychalcone precipitated in the growth media at
the highest concentrations, the maximal concentration of these compounds was reduced to 400
µM and 100 µM, respectively. The final backscatter at 620 nm, the growth rate (h-1), and the
duration of the lag phase of all cultures were determined in a BioLector microscale cultivation
system in comparison to negative controls supplemented with the solvent DMSO. A longer lag

[3] = read-out: IC50 F. pringlei PEPC
[4] = ATCC13032, complex medium, 4 µM, read-out: Final Backscatter
[5] = ATCC13032, complex medium, 4 µM, read-out: Growth rate
[6] = ATCC13032, complex medium, 40 µM, read-out: Final Backscatter
[7] = ATCC13032, complex medium, 40 µM, read-out: Growth rate
[8] = ATCC13032, complex medium, 400 µM, read-out: Final Backscatter
[9] = ATCC13032, complex medium, 400 µM, read-out: Growth rate
[10] = ATCC13032, minimal medium, 4 µM, read-out: Final Backscatter
[11] = ATCC13032, minimal medium, 4 µM, read-out: Growth rate
[12] = ATCC13032, minimal medium, 40 µM, read-out: Final Backscatter
[13] = ATCC13032, minimal medium, 40 µM, read-out: Growth rate
[14] = ATCC13032, minimal medium, 400 µM, read-out: Final Backscatter
[15] = ATCC13032, minimal medium, 400 µM, read-out: Growth rate

| SMILES | IC50 [1, 3] [µM] | activity at 4 µM [2, 4] [%] | activity at 4 µM [2, 5] [%] | activity at 40 µM [2, 6] [%] | activity at 40 µM [2, 7] [%] | activity at 400 µM [2, 8] [%] | activity at 400 µM [2, 9] [%] | activity at 4 µM [2, 10] [%] | activity at 4 µM [2, 11] [%] | activity at 40 µM [2, 12] [%] | activity at 40 µM [2, 13] [%] | activity at 400 µM [2, 14] [%] | activity at 400 µM [2, 15] [%] | Lag Phase ([2]; complex medium, 4 µM) | Lag Phase ([2]; complex medium, 40 µM) | Lag Phase ([2]; complex medium, 400 µM) | Lag Phase ([2]; minimal medium, 4 µM) | Lag Phase ([2]; minimal medium, 40 µM) | Lag Phase ([2]; minimal medium, 400 µM) | also measured |
| --- | --- | --- | --- | --- | --- | --- | --- | --- | --- | --- | --- | --- | --- | --- | --- | --- | --- | --- | --- | --- |
| O=C(/C=C/c1ccc(O)cc1)c1ccccc1O [Compound 3, 2′,4-Dihydroxychalcone] | 64.2 ± 2.8 | 100 | 101 | 103 | 99.1 | 112 | 93.9 | 102 | 99.6 | 103 | 99.5 | 106 | 81.2 | 93,2% | 93,8% | 118,1% | 100,0% | 97,3% | 139,3% | activity at 120 µM ([2]; ATCC13032, complex medium, 120 µM, read-out: Final Backscatter): 111%; activity at 120 µM ([2]; ATCC13032, complex medium, 120 µM, read-out: Growth rate): 107%; activity at 120 µM ([2]; ATCC13032, minimal medium, 120 µM, read-out: Final Backscatter): 102%; activity at 120 µM ([2]; ATCC13032, minimal medium, 120 µM, read-out: Growth rate): 96.7%; Lag Phase ([2]; complex medium, 120 µM): 100,5%; Lag Phase ([2]; minimal medium, 120 µM): 107,7% |
| O=C(/C=C/c1ccccc1)c1ccc(O)cc1O [Compound 4, 2′,4′-Dihydroxychalcone] | 53 ± 1.1 | 101 | 113 | 105 | 115 | 107 | 91.6 | 102 | 98.9 | 100 | 95.5 | 110 | 65.2 | 97,4% | 96,2% | 116,6% | 98,7% | 100,0% | 169,9% |  |
| O=C(/C=C/c1ccccc1)c1cc(O)ccc1O [Compound 5, 2′,5′-Dihydroxychalcone] | 105 ± 4.6 |  |  |  |  |  |  |  |  |  |  |  |  |  |  |  |  |  |  | growth ([2]; 550 μM, minimal media): abolished growth; activity at 55 µM ([2]; ATCC13032, complex medium, 55 µM, read-out: Final Backscatter): 106%; activity at 55 µM ([2]; ATCC13032, complex medium, 55 µM, read-out: Growth rate): 107%; activity at 110 µM ([2]; ATCC13032, complex medium, 110 µM, read-out: Final Backscatter): 103%; activity at 110 µM ([2]; ATCC13032, complex medium, 110 µM, read-out: Growth rate): 110%; activity at 550 µM ([2]; ATCC13032, complex medium, 550 µM, read-out: Final Backscatter): 118%; activity at 550 µM ([2]; ATCC13032, complex medium, 550 µM, read-out: Growth rate): 79%; activity at 55 µM ([2]; ATCC13032, minimal medium, 55 µM, read-out: Final Backscatter): 99.7%; activity at 55 µM ([2]; ATCC13032, minimal medium, 55 µM, read-out: Growth rate): 86.9%; activity at 110 µM ([2]; ATCC13032, minimal medium, 110 µM, read-out: Final Backscatter): 101%; activity at 110 µM ([2]; ATCC13032, minimal medium, 110 µM, read-out: Growth rate): 79.5%; activity at 550 µM ([2]; ATCC13032, minimal medium, 550 µM, read-out: Final Backscatter): 18.8%; Influence on bacterial growth ([2]; Minimal medium, highest concentration tested (10× IC50) if not stated otherwise): μ↓ (≥IC50), no growth (10× IC50); Lag Phase ([2]; complex medium, 55 µM): 96,2%; Lag Phase ([2]; complex medium, 110 µM): 98,4%; Lag Phase ([2]; complex medium, 550 µM): 120,7%; Lag Phase ([2]; minimal medium, 55 µM): 114,0%; Lag Phase ([2]; minimal medium, 110 µM): 133,1% |
| O=C(/C=C/c1ccc(O)cc1)c1ccc(O)cc1O [Compound 6, 2′,4′,4-Trihydroxychalcone] |  | 99.8 | 99.5 | 98.2 | 101 | 97.7 | 79.8 | 100 | 101 | 101 | 97.7 | 101 | 80.5 | 99,3% | 101,3% | 105,3% | 98,5% | 101,5% | 127,6% | IC50 ([1]; IC50 F. pringlei PEPC): 57.8 ± 1.1 µM |
| O=C(/C=C/c1ccccc1O)c1ccc(O)cc1O [Compound 7, 2′,4′,2-Trihydroxychalcone] | 64.4 ± 1.1 | 100 | 99.1 | 98.3 | 98.8 | 110 | 91.2 | 98.1 | 102 | 101 | 98.7 | 94.3 | 52.9 | 101,6% | 106,3% | 141,2% | 100,0% | 103,0% | 181,9% |  |
